# Test results reported in the NIST ThermoML archive (doi:10.1016/j.jct.2011.04.018).
# ± gives the expanded uncertainty stated by the source.
# Assay: activity coefficient (dimensionless); of the first substance listed, at infinite dilution; xn = mol fraction of the nth substance listed
# Conditions: 101 kPa, Liquid, Chromatography, x1 = 0
Compound,activity coefficient (308.15 K),activity coefficient (318.15 K),activity coefficient (328.15 K),activity coefficient (338.15 K),activity coefficient (348.15 K),activity coefficient (358.15 K),activity coefficient (368.15 K),activity coefficient (378.15 K)
"CC(C)CC(C)(C)C [2,2,4-trimethylpentane] + O=S(=O)([N-]S(=O)(=O)C(F)(F)F)C(F)(F)F.OCCC[n+]1ccccc1",81.7 ± 5.6,73.9 ± 5.1,67 ± 4.6,60.7 ± 4.2,55.7 ± 3.8,51.4 ± 3.5,47.3 ± 3.2,–
CC(=O)O [acetic acid] + O=S(=O)([N-]S(=O)(=O)C(F)(F)F)C(F)(F)F.OCCC[n+]1ccccc1,–,0.255 ± 0.03,0.277 ± 0.03,0.298 ± 0.031,0.32 ± 0.031,0.343 ± 0.032,0.367 ± 0.033,0.388 ± 0.034
CCCCCCC [heptane] + O=S(=O)([N-]S(=O)(=O)C(F)(F)F)C(F)(F)F.OCCC[n+]1ccccc1,82 ± 5.6,73.8 ± 5.1,66.2 ± 4.5,59.3 ± 4.1,54.3 ± 3.7,49.4 ± 3.4,45.8 ± 3.1,–
C1CCCC1 [cyclopentane] + O=S(=O)([N-]S(=O)(=O)C(F)(F)F)C(F)(F)F.OCCC[n+]1ccccc1,15.8 ± 1.1,14.6 ± 1,13.5 ± 0.9,12.5 ± 0.9,11.7 ± 0.8,11.1 ± 0.8,10.4 ± 0.7,–
C1CCCCC1 [cyclohexane] + O=S(=O)([N-]S(=O)(=O)C(F)(F)F)C(F)(F)F.OCCC[n+]1ccccc1,25.5 ± 1.7,23.2 ± 1.6,21.1 ± 1.4,19.4 ± 1.3,17.9 ± 1.2,16.7 ± 1.1,15.5 ± 1.1,–
CO [methanol] + O=S(=O)([N-]S(=O)(=O)C(F)(F)F)C(F)(F)F.OCCC[n+]1ccccc1,–,0.87 ± 0.056,0.836 ± 0.054,0.804 ± 0.052,0.776 ± 0.051,0.749 ± 0.049,0.725 ± 0.048,0.703 ± 0.047
CCc1ccccc1 [ethylbenzene] + O=S(=O)([N-]S(=O)(=O)C(F)(F)F)C(F)(F)F.OCCC[n+]1ccccc1,–,3.96 ± 0.27,3.93 ± 0.27,3.9 ± 0.27,3.87 ± 0.26,3.84 ± 0.26,3.82 ± 0.26,3.79 ± 0.26
C=CCCCC [hex-1-ene] + O=S(=O)([N-]S(=O)(=O)C(F)(F)F)C(F)(F)F.OCCC[n+]1ccccc1,22.7 ± 1.6,21.2 ± 1.4,19.7 ± 1.3,18.4 ± 1.3,17.3 ± 1.2,16.4 ± 1.1,–,–
CCO [ethanol] + O=S(=O)([N-]S(=O)(=O)C(F)(F)F)C(F)(F)F.OCCC[n+]1ccccc1,–,1.16 ± 0.07,1.11 ± 0.07,1.06 ± 0.07,1.02 ± 0.06,0.984 ± 0.062,0.949 ± 0.06,0.919 ± 0.058
C1CCCCCC1 [cycloheptane] + O=S(=O)([N-]S(=O)(=O)C(F)(F)F)C(F)(F)F.OCCC[n+]1ccccc1,36.3 ± 2.5,32.8 ± 2.2,29.7 ± 2,26.9 ± 1.8,24.7 ± 1.7,22.9 ± 1.6,21.2 ± 1.4,–
CCCC(C)=O [pentan-2-one] + O=S(=O)([N-]S(=O)(=O)C(F)(F)F)C(F)(F)F.OCCC[n+]1ccccc1,–,0.885 ± 0.056,0.91 ± 0.058,0.937 ± 0.059,0.96 ± 0.06,0.984 ± 0.062,1.01 ± 0.06,1.03 ± 0.06
"Cc1ccccc1C [1,2-dimethylbenzene] + O=S(=O)([N-]S(=O)(=O)C(F)(F)F)C(F)(F)F.OCCC[n+]1ccccc1",–,3.11 ± 0.21,3.12 ± 0.21,3.13 ± 0.21,3.13 ± 0.21,3.14 ± 0.21,3.15 ± 0.21,3.15 ± 0.21
